The record followed here is US9056862B2, “Thioxothiazolidine derivative having Ras function inhibitory effect” (NATIONAL UNIVERSITY CORPORATION KOBE UNIVERSITY, priority 2011, dated 2015).

One experiment addresses T1, Ras-Raf binding.
T1 construct: fused on or other part: GST tag on Ras was cleaved off with PreScission protease before the test
Kind of experiment: In vitro binding assay: Ras-Raf binding inhibition (GST-Raf on resin, GTPγ[35S]-labeled Ras, scintillation counting). The conditions noted are these: GST-Raf fusion protein on resin, radioactive Ras, compound dissolved in 10% DMSO. As for the experimental part: • 1) A fusion protein of Raf (target protein of Ras) and GST (glutathione S-transferase) was expressed in Escherichia coli using GST fusion protein expression vector (pGEX-6P-1 vector (GE Healthcare)). The expressed GST-Raf fusion protein was immobilized on an affinity carrier for purification (glutathione Sepharose 4B: resin (GE Healthcare)). • 2) Radioisotope-labeled Ras
GTPγ[^35S] (Perkin Elmer), which is one of the GTP analogs, was added to Ras in which GST tag was cleaved using GST fusion protein cleavage protease (PreScission protease (GE Healthcare)) to prepare radioisotope-labeled Ras. • 3) Measurement of Ras-Raf binding inhibition activity
GST-Raf fusion protein immobilized on the resin in the above-mentioned 1) and the radioactive Ras prepared in the above-mentioned 2) were incubated in the presence of various concentrations of a compound dissolved in 10% DMSO to promote the binding reaction between Ras and Raf. The resin in the reaction solution was washed, and then, the complex of GST-Raf fusion protein and radioactive Ras was eluted by adding glutathione. The binding activity between Ras and Raf was measured by scintillation counting of the radioactivity of the eluate. Thus, the Ras-Raf binding inhibition activity by addition of various compounds was evaluated.

Experiment [1] relates to human colorectal cancer cell line, SW480, which has active form of K-Ras. In words: In vivo assay: tumor growth inhibition in SW480 xenograft in nude mice. The conditions noted are these: 80 mg/kg orally once a day, five consecutive days per week, after three-week administration; SW480 subcutaneous in female nude mice; control group = 100%. How it is done:
A cell suspension (about 2×10^6 cells) of human colorectal cancer cell line, SW480, which has active form of K-Ras, was subcutaneously inoculated and implanted with a syringe at the right flank of 6 to 8-week-old nude mice (female). After a tumor grew to the grossly recognizable size (40-100 mm^3), a compound (80 mg/kg) dissolved in a solvent (Cremophor EL:Ethanol:Water=1:1:6) was orally administered once a day for five consecutive days per week. This is considered as the compound administration group. A solvent alone was administered to control group in the same manner. After the compound administration started, tumor volumes of both the groups were measured twice a week. Tumor growth inhibition rates were calculated by comparing tumor volumes of control group (100%) and those of compound administration group after three-week administration to evaluate anticancer activity of a compound. The tumor growth inhibition rates in the case of orally administering compounds of the present invention at 80 mg/Kg are shown in the following Table 7.

Consider `O=C1/C(=C/c2ccccc2OCCOc2ccc([N+](=O)[O-])cc2)SC(=S)N1NC1=NS(=O)(=O)c2ccccc21` [Example 56], for which the IC50 at Ras-Raf binding was found to be 90 µM. In addition, in experiment [1], the “tumor growth inhibition rate (%)” value amounted to 62%.
For `O=C1/C(=C/c2ccc([N+](=O)[O-])cc2[N+](=O)[O-])SC(=S)N1NC1=NS(=O)(=O)c2ccccc21` [Example 7], in that order: 200 µM and 85%.
For `O=C1/C(=C/c2ccc(Br)cc2)SC(=S)N1NC1=NS(=O)(=O)c2ccccc21` [Example 6], in that order: 400 µM and 85%.
With `O=C1/C(=C/c2ccccc2OCCOc2ccccc2)SC(=S)N1NC1=NS(=O)(=O)c2ccccc21` [Example 53], on Ras-Raf binding, the IC50 amounted to 160 µM.
In the case of `O=C1/C(=C/c2cccc(Oc3ccccc3)c2)SC(=S)N1NC1=NS(=O)(=O)c2ccccc21` [Example 12], on Ras-Raf binding, the IC50 is 50 µM. Besides, the “tumor growth inhibition rate (%)” value in experiment [1] was determined as 86%.
Consider `O=C1/C(=C/c2ccccc2Oc2ccccc2)SC(=S)N1NC1=NS(=O)(=O)c2ccccc21` [Example 13], for which, on Ras-Raf binding, the IC50 is 100 µM. Besides, the “tumor growth inhibition rate (%)” value in experiment [1] was determined as 70%.
With `CC(C)(C)OC(=O)NCCOc1cccc(C=C2SC(=S)N(NC3=NS(=O)(=O)c4ccccc43)C2=O)c1` [Example 167, 3-[(4-Oxo-5-(3-(2-t-butoxycarbonylaminoethyloxy)benzylidene)-2-thioxothiazolidin-3-yl)amino]-1,2-benzothiazole 1,1-dioxide], on Ras-Raf binding, the IC50 worked out at 360 µM.
For the compound `O=C1/C(=C/c2ccc(Oc3ccccc3)cc2)SC(=S)N1NC1=NS(=O)(=O)c2ccccc21` [Example 1, 3-[(4-oxo-5-(4-phenoxybenzylidene)-2-thioxothiazolidin-3-yl)amino]-1,2-benzisothiazole 1,1-dioxide], the IC50 on Ras-Raf binding amounted to 70 µM. Moreover, the “tumor growth inhibition rate (%)” value in experiment [1] was 88%.
Taken in the same sequence, the figures for `O=C1/C(=C/c2ccc(OCc3ccccc3)cc2)SC(=S)N1NC1=NS(=O)(=O)c2ccccc21` [Example 16] were 100 µM and 69%.
`Cc1ccc(OCCOc2ccccc2/C=C2\SC(=S)N(NC3=NS(=O)(=O)c4ccccc43)C2=O)cc1` [Example 55]: the half-inhibitory concentration (IC50) at Ras-Raf binding amounted to 100 µM.
